Source: PubChem BioAssay AID2060889 (Molecular Pharmacology Branch, DTP, NCI, 2025)
Where “and” joins values, the source holds several entries; their conditions need not be identical. Equal entries are not always repeated.

Tested on: LG0567-F671-PDC complex spheroids viability
Assay: Anticancer human tumor LG0567-F671-PDC patient-derived lung adenocarcinoma cell line growth inhibition [RAS]
Settings: for viability, T/C: stronger effect = lower value
How it was run: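 Multi-cell-type spheroids: tumor cells plus HUVEC endothelial cells and mesenchymal stem cells. RAS-pathway inhibitors were combined with targeted agents, each dosed in half-log steps down from clinical Cmax, or from 10 microM when Cmax was unknown.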
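Further: spheroids exposed to compound for seven days before readout.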
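Wherever IC50 is given: luminescence signal used as a proxy for viable cells.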

CC1(O)CCCC1n1c(=O)c(C(F)F)cc2cnc(NC3CCN(S(C)(=O)=O)CC3)nc21 (stereo not given)
viability, T/C (compound 0.0316 µM): 88.7% [middle of 4 runs] | viability, T/C (compound 0.1 µM): 86.2% [middle of 4 runs] | viability, T/C (compound 0.316 µM): 81.6% [middle of 4 runs] | viability, T/C (compound 1 µM): 91.5% [middle of 4 runs] | viability, T/C (compound 3.16 µM): 93.8% [middle of 4 runs] | viability, T/C (compound 10 µM): 47% [middle of 4 runs]

Nc1ccn(C2OC(CO)C(O)C2(F)F)c(=O)n1 (stereo not given) + C=CC(=O)N1CCN(c2nc(OCC3CCCN3C)nc3c(F)c(-c4nc(N)cc(C)c4C(F)(F)F)c(Cl)cc23)C(C)C1
IC50 (curve of first compound, second compound 0.00316 µM): < 3.16 nM | IC50 (curve of first compound, second compound 0.01 µM): < 3.16 nM | IC50 (curve of first compound, second compound 0.0316 µM): < 3.16 nM | IC50 (curve of first compound, second compound 0.1 µM): < 3.16 nM | IC50 (curve of first compound, second compound 0.316 µM): < 3.16 nM | IC50 (curve of first compound, second compound 1 µM): < 3.16 nM | viability, T/C (second compound 0.00316 µM, first compound 0.00316 µM): 18.4% | viability, T/C (second compound 0.00316 µM, first compound 0.01 µM): 16.4% | viability, T/C (second compound 0.00316 µM, first compound 0.0316 µM): 14.8% | viability, T/C (second compound 0.00316 µM, first compound 0.1 µM): 16.6% | viability, T/C (second compound 0.00316 µM, first compound 0.316 µM): 15.9% | viability, T/C (second compound 0.00316 µM, first compound 1 µM): 15.8% | viability, T/C (second compound 0.01 µM, first compound 0.00316 µM): 16.5% | viability, T/C (second compound 0.01 µM, first compound 0.01 µM): 13.8% | viability, T/C (second compound 0.01 µM, first compound 0.0316 µM): 13.9% | viability, T/C (second compound 0.01 µM, first compound 0.1 µM): 14.3% | viability, T/C (second compound 0.01 µM, first compound 0.316 µM): 14.3% | viability, T/C (second compound 0.01 µM, first compound 1 µM): 14.9% | viability, T/C (second compound 0.0316 µM, first compound 0.00316 µM): 15% | viability, T/C (second compound 0.0316 µM, first compound 0.01 µM): 14.2% | viability, T/C (second compound 0.0316 µM, first compound 0.0316 µM): 12.5% | viability, T/C (second compound 0.0316 µM, first compound 0.1 µM): 14.5% | viability, T/C (second compound 0.0316 µM, first compound 0.316 µM): 15.3% | viability, T/C (second compound 0.0316 µM, first compound 1 µM): 12.8% | viability, T/C (second compound 0.1 µM, first compound 0.00316 µM): 14.2% | viability, T/C (second compound 0.1 µM, first compound 0.01 µM): 13.2% | viability, T/C (second compound 0.1 µM, first compound 0.0316 µM): 14.2% | viability, T/C (second compound 0.1 µM, first compound 0.1 µM): 11.5% | viability, T/C (second compound 0.1 µM, first compound 0.316 µM): 12.9% | viability, T/C (second compound 0.1 µM, first compound 1 µM): 14% | viability, T/C (second compound 0.316 µM, first compound 0.00316 µM): 13.4% | viability, T/C (second compound 0.316 µM, first compound 0.01 µM): 13.8% | viability, T/C (second compound 0.316 µM, first compound 0.0316 µM): 11.6% | viability, T/C (second compound 0.316 µM, first compound 0.1 µM): 12.6% | viability, T/C (second compound 0.316 µM, first compound 0.316 µM): 14.7% | viability, T/C (second compound 0.316 µM, first compound 1 µM): 11.6% | viability, T/C (second compound 1 µM, first compound 0.00316 µM): 14.1% | viability, T/C (second compound 1 µM, first compound 0.01 µM): 16.4% | viability, T/C (second compound 1 µM, first compound 0.0316 µM): 14.7% | viability, T/C (second compound 1 µM, first compound 0.1 µM): 13.7% | viability, T/C (second compound 1 µM, first compound 0.316 µM): 14.2% | viability, T/C (second compound 1 µM, first compound 1 µM): 14.3%

CCC(CC)c1cc(NC2CCC(N)C2)n2nccc2n1 (stereo not given)
viability, T/C (compound 0.0316 µM): 101% [middle of 4 runs] | viability, T/C (compound 0.1 µM): 106% [middle of 4 runs] | viability, T/C (compound 0.316 µM): 100% and 103% (2×) and 138% | viability, T/C (compound 1 µM): 111% and 103% (2×) and 118% | viability, T/C (compound 3.16 µM): 5.03% [middle of 4 runs] | viability, T/C (compound 10 µM): 0.67% [middle of 4 runs] | IC50 (curve of compound): 1.86 µM [middle of 4 runs]
